Results published in EP0001174A1, “A peptide and the salts thereof, processes for their preparation and compositions containing them” (NYEGAARD & CO. A/S, priority 1977, dated 1979).
Non-standard residues stand in square brackets, D forms with d. Residues, ends and D or L forms follow the SMILES beside them. pGlu = O=C1CC[C@@H](C(=O)O)N1

Assay: biological activity of the synthetic peptide compared with the biogenic material isolated from urine (test not described; anorexigenic properties stated)
Details: no method or figures given

Question: For `O=C(O)CNC(=O)[C@H](Cc1cnc[nH]1)NC(=O)[C@@H]1CCC(=O)N1` [synthetic peptide, L-(pyro)glutamyl-L-histidyl-glycine] ([pGlu]-His-Gly-OH), which biological activity is on record?
Answer: The biological activity was “comparable biological activity”.
